≈ marks a conversion by molar mass, not a printed value. Like-named read-outs stand apart in the source and are kept apart here.
What was measured:
[1] = system: Pellicularia sasakii; assay: Fungicidal activity, fungi growth rate method, PS; format: cell-based; settings: 50 μg/mL
[2] = system: tobacco mosaic virus (TMV); assay: Anti-TMV inducing activity (induction mode), tobacco seedlings; format: in vivo; settings: Tobacco mosaic virus, read-out: Anti-TMV activity, Induction effect (inhibition), 100 μg/mL, tobacco seedlings
[3] = system: Phytophthora infestans (Mont) de Bary; assay: microbe, parasite or virus in culture; format: cell-based; settings: Phytophthora infestans
[4] = system: tobacco mosaic virus (TMV); assay: Anti-TMV inactivation activity (inactivation mode), compound mixed with TMV before inoculation of tobacco leaves; format: in vivo; settings: Tobacco mosaic virus, read-out: Anti-TMV activity, Inactivation effect (inhibition)
[5] = system: Alternaria solani; assay: Fungicidal activity, fungi growth rate method, AS; format: cell-based; settings: Alternaria solani, 50 μg/mL
[6] = system: tobacco mosaic virus (TMV); assay: Anti-TMV protective activity (protection mode), live friction inoculation on tobacco seedlings; format: in vivo; settings: Tobacco mosaic virus, read-out: Anti-TMV activity, Protection effect (inhibition)
[7] = system: Cercospora arachidicola; assay: Fungicidal activity, fungi growth rate method, CA; format: cell-based; settings: Mycosphaerella arachidis, 50 μg/mL
[8] = system: Rhizoctonia cerealis; assay: Fungicidal activity, fungi growth rate method, RC; format: cell-based; settings: Ceratobasidium cereale, 50 μg/mL
[9] = system: wheat Gibberella zeae; assay: microbe, parasite or virus in culture; format: cell-based; settings: Fusarium graminearum
[10] = system: Botrytis cinerea; assay: Fungicidal activity, fungi growth rate method, BC; format: cell-based; settings: Botrytis cinerea, 50 μg/mL
[11] = system: tobacco mosaic virus (TMV); assay: Anti-TMV curative activity (treatment mode), live friction inoculation on tobacco seedlings; format: in vivo; settings: Tobacco mosaic virus, read-out: Anti-TMV activity, Curative effect (inhibition), 100 μg/mL, tobacco seedlings, checked on seventh day
[12] = system: Physalospora piricola; assay: Fungicidal activity, fungi growth rate method, PP; format: cell-based; settings: 50 μg/mL
[13] = system: Sclerotinia sclerotiorum; assay: microbe, parasite or virus in culture; format: cell-based; settings: Sclerotinia sclerotiorum; for EC90: read-out: EC90 against S. sclerotiorum in vitro; for inhibition at 50 µg/mL: 50 μg/mL
[14] = read-out: Fungicidal activity, inhibition, PS
[15] = read-out: Fungicidal activity, inhibition, PI
[16] = read-out: Fungicidal activity, inhibition, AS
[17] = read-out: Fungicidal activity, inhibition, CA
[18] = read-out: Fungicidal activity, inhibition, RC
[19] = read-out: Fungicidal activity, inhibition, GZ
[20] = read-out: Fungicidal activity (inhibition) against BC: Botrytis cinerea
[21] = read-out: Fungicidal activity, inhibition, BC
[22] = read-out: Fungicidal activity, inhibition, PP
[23] = read-out: Fungicidal activity, inhibition, SS
[24] = read-out: Fungicidal activity (inhibition) against PS: Pellicularia sasakii
[25] = read-out: Fungicidal activity (inhibition) against PI: Phytophthora infestans (Mont) de Bary
[26] = read-out: Fungicidal activity (inhibition) against AS: Alternaria solani
[27] = read-out: Fungicidal activity (inhibition) against CA: Cercospora arachidicola
[28] = read-out: Fungicidal activity (inhibition) against RC: Rhizoctonia cerealis
[29] = read-out: Fungicidal activity (inhibition) against PP: Physalospora piricola
[30] = read-out: Fungicidal activity (inhibition) against SS: Sclerotinia sclerotiorum

Row | SMILES | inhibition at 50 µg/mL [1, 14] | inhibition at 100 µg/mL [2] | inhibition at 50 µg/mL [3, 15] | inhibition at 100 µg/mL [4] | inhibition at 50 µg/mL [5, 16] | inhibition at 100 µg/mL [6] | inhibition at 50 µg/mL [7, 17] | inhibition at 50 µg/mL [8, 18] | inhibition at 50 µg/mL [9, 19] | inhibition at 50 µg/mL [10, 21] | inhibition at 100 µg/mL [11] | inhibition at 50 µg/mL [12, 22] | melting point | EC90 [13] | inhibition at 50 µg/mL [13, 23] | inhibition at 50 µg/mL [3, 25] | inhibition at 50 µg/mL [8, 28] | also measured
1 | CNC(=O)/C(=C/c1csc(C2CCN(C(=O)OC(C)(C)C)CC2)n1)NC(=O)c1ccccc1 [Compound 41, (Z)-N-[1-[(methylamino)carbonyl]-2-[4-[2-[4-(1-Boc-piperidine)]thiazol]]ethenyl]benzamide] | 33% | 2% | 39% | 0% | 54% | 30% | 35% | 33% | 34% | 52% | 0% | 37% | 107 to 109 °C | 375 µg/mL (≈ 796 µM) | 96% |  |  | inhibition at 50 µg/mL [10, 20]: 52%
2 | CONC(=O)/C(=C/c1csc(C2CCN(C(=O)OC(C)(C)C)CC2)n1)NC(=O)c1ccccc1 [Compound 42, (Z)-N-[1-[(methoxylamino)carbonyl]-2-[4-[2-[4-(1-Boc-piperidine)]thiazol]]ethenyl]benzamide] | 43% | 20% | 44% | 0% | 63% | 41% | 44% | 45% | 42% | 53% | 0% | 44% | 111 to 113 °C | 155 µg/mL (≈ 318 µM) | 93% | 44% | 45% | inhibition at 50 µg/mL [1, 24]: 43%; inhibition at 50 µg/mL [5, 26]: 63%; inhibition at 50 µg/mL [7, 27]: 44%; inhibition at 50 µg/mL [10, 20]: 53%; inhibition at 50 µg/mL [12, 29]: 44%
3 | CC(C)(C)OC(=O)N1CCC(c2nc(/C=C(\NC(=O)c3ccccc3)C(=O)NCC(F)F)cs2)CC1 [Compound 43, (Z)-N-[1-[(2,2-difluoroethylamino)carbonyl]-2-[4-[2-[4-(1-Boc-piperidine)]thiazol]]ethenyl]benzamide] | 39% | 31% | 38% | 27% | 43% | 2% | 32% | 38% | 36% | 40% | 30% | 40% | 164 to 165 °C | 154 µg/mL (≈ 295 µM) | 96% | 38% | 38% | 
4 | O=C(N/C(=C\c1ccccc1)C(=O)N1CCC(O)CC1)c1ccccc1 [Compound 45, (Z)-N-[1-[(4-hydroxy-1-piperidinyl)carbonyl]-2-phenylethenyl]benzamide] | 3% | 52% | 24% | 22% | 25% | 54% | 6% | 13% | 43% | 12% | 30% | 6% | 115 to 117 °C |  | 38% | < 25% | < 20% | inhibition at 50 µg/mL [1, 24]: < 30%; inhibition at 50 µg/mL [5, 26]: < 30%; inhibition at 50 µg/mL [7, 27]: < 25%; inhibition at 50 µg/mL ([9]; read-out: Fungicidal activity (inhibition) against GZ: wheat Gibberella zeae): < 45%; inhibition at 50 µg/mL [12, 29]: < 20%; inhibition at 50 µg/mL [13, 30]: 38%
5 | O=C(NCc1ccc(Br)cc1)/C(=C/c1ccccc1)NC(=O)c1ccccc1 [Compound 46, N-[(1Z)-2-phenyl-1-[[(4-bromophenylmethyl)amino]carbonyl]ethenyl]benzamide] | 2% | 44% | 11% | 64% | 7% | 41% | 18% | 13% | 43% | 9% | 33% | 12% | 192 to 194 °C |  | 34% |  |  | 
6 | CC(C)(C)OC(=O)N1CCC(c2nc(/C=C(\NC(=O)c3ccccc3)C(=O)NCc3ccc(Br)cc3)cs2)CC1 [Compound 47, N-[(1Z)-2-[4-[2-[4-(1-Boc-piperidine)]thiazol]]-1-[[(4-bromophenylmethyl)amino]carbonyl]ethenyl]benzamide] | 19% | 53% | 20% | 0% | 36% | 41% | 22% | 21% | 22% | 32% | 56% | 22% | 101 to 103 °C |  | 82% |  |  | inhibition at 50 µg/mL [13, 30]: 80 to 95%
7 | O=C(NC(Cc1ccccc1)C(=O)N1CCC(c2ccccc2)CC1)c1ccccc1 (stereo not shown) [Compound 48, N-[1-[[4-(4-phenyl)-1-piperidinyl]carbonyl]-2-phenylethyl]benzamide] | 17% | 27% | 23% | 32% | 18% | 2% | 9% | 11% | 11% | 17% | 25% | 14% | 143 to 144 °C |  | 64% |  |  | 
8 | O=C(NC(Cc1ccccc1)C(=O)N1CCC(O)(c2ccc(Br)cc2)CC1)C1CC1 (stereo not shown) [Compound 49, N-[1-[[4-(4-bromophenyl)-4-hydroxy-1-piperidinyl]carbonyl]-2-phenylethyl]cyclopropanecarboxamide] | 14% | 21% | 11% | 31% | 28% | 41% | 12% | 18% | 43% | 15% | 29% | 6% | 101 to 103 °C |  | 50% |  |  | 
9 | O=C(NC(Cc1ccccc1)C(=O)N1CCC(O)(c2ccc(Br)cc2)CC1)C1CCCCC1 (stereo not shown) [Compound 50, N-[1-[[4-(4-bromophenyl)-4-hydroxy-1-piperidinyl]carbonyl]-2-phenylethyl]cyclohexanecarboxamide] | 20% | 34% | 26% | 34% | 29% | 47% | 26% | 23% | 29% | 29% | 37% | 18% | 200 to 202 °C |  | 50% |  |  | 

From patent US11166460B2, “α-amino acrylate microbicide, and preparation method therefor and uses thereof” (priority 2017, dated 2021)
